Experimental data taken from publication PMC12668310, “High‐Throughput Synthesis and Screening of a Cyanimide Library Identifies Selective Inhibitors of ISG15‐Specific Protease mUSP18” (Angewandte Chemie (International Ed. in English), 2025).
Read-outs that look alike come from different tables or passages of the source.

Target: T1, mUSP18 (Mus musculus, UniProt Q9WTV6)
T1 construct: (46-368); His-tag (N); made in house
T1 sequence (Q9WTV6 46-368): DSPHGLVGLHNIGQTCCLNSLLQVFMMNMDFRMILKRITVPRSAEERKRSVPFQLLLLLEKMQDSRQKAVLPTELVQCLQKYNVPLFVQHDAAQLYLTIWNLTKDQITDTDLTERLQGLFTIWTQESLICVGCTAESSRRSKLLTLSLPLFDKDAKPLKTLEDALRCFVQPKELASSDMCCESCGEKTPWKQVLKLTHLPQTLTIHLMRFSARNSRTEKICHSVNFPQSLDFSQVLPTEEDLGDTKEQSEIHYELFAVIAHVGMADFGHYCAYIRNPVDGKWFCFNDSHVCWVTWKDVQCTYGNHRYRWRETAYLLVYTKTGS
Test: High-throughput screening, ISG15ct-RhoMP, single dose 1.25 µM
Type: biochemical, murine
Details: for inhibition at 1.25 µM / %inh CA only / %inh CA + DIC/HOBT: mUSP18 %inhibition

[1] = carboxylic acid (CA) building block alone, read-out: %inh CA only
[2] = carboxylic acid (CA) with coupling reagents DIC/HOBT, read-out: %inh CA + DIC/HOBT
[3] = carboxylic acid (CA) building block alone
[4] = carboxylic acid (CA) with coupling reagents DIC/HOBT

| Structure (SMILES) | inhibition at 1.25 µM [1] | inhibition at 1.25 µM [2] | %inh CA only [3] | %inh CA + DIC/HOBT [4] | inhibition of mUSP18 by individual CA's and coupling reagents (screened with and without DIC/HOBt) |
| --- | --- | --- | --- | --- | --- |
| CCCN(CCC)S(=O)(=O)c1ccc(C(=O)O)cc1 [CA041] | -0.96% | -9.25% | – | – | – |
| O=C(O)CCc1ccccc1Br [CA043] | -0.54% | -8.19% | – | – | – |
| CC(=O)CCCC(=O)O [CA044] | -3.03% | -7.52% | – | – | – |
| O=Cc1ccccc1C(=O)O [CA045] | -3.41% | -8.39% | – | – | – |
| O=Cc1cccc(C(=O)O)c1 [CA046] | 0.78% | -7.39% | – | – | – |
| O=C(O)CN1C(=O)c2ccccc2C1=O [CA049] | 0.06% | -15.8% | – | – | – |
| COc1cc(CC(=O)O)ccc1O [CA050] | -1.29% | -15.5% | – | – | – |
| O=C(O)CCc1ccc(O)cc1 [CA051] | -3.68% | -16.6% | – | – | – |
| CNc1ccc(C(=O)O)cc1 [CA052] | -7.36% | -19.1% | – | – | – |
| Cc1ccc(Br)c(C(=O)O)c1 [CA053] | – | – | -8.05% | -15.25% | – |
| O=C(O)c1cc([N+](=O)[O-])ccc1Br [CA054] | -7.96% | -15.9% | – | – | – |
| O=C(O)c1c(F)c(F)c(O)c(F)c1F [CA055] | -5.28% | -14.4% | – | – | – |
| CC(=O)CCC(=O)O [CA056] | -7.82% | -15.2% | – | – | – |
| O=C(O)c1cccc(B(O)O)c1 [CA057] | -5.9% | -16.2% | – | – | – |
| O=C(O)CCc1cccnc1 [CA058] | -2.47% | -16.4% | – | – | – |
| O=C(O)c1ccc(F)c(F)c1 [CA059] | -4.22% | -18.1% | – | – | – |
| O=C(NCc1ccc(C(=O)O)cc1)OCC1c2ccccc2-c2ccccc21 [CA061] | 13.4% | -3.66% | – | – | – |
| CN(C)c1ccc(C(=O)O)cc1 [CA062] | -0.0145% | 33.7% | – | – | – |
| CC(C)(C)OC(=O)N1C[C@@H](O)C[C@@H]1C(=O)O [CA063] | -5.22% | -16.4% | – | – | – |
| CC(C)(C)OC(=O)N1CC[C@H](C(=O)O)C1 [CA067] | -11.3% | -14.4% | – | – | – |
| O=C(O)c1ccc2cc3ccccc3cc2c1 [CA068] | 6.72% | 2.22% | – | – | – |
| O=C(O)c1cccc2cc3ccccc3cc12 [CA069] | -0.58% | -8.94% | – | – | – |
| N#CCC(=O)O [CA070] | -5.36% | -14.2% | – | – | – |
| CC(=O)Oc1ccccc1C(=O)O [CA071] | -4.57% | -15.7% | – | – | – |

| Structure (SMILES) | inhibition at 1.25 µM [1] | inhibition at 1.25 µM [2] | %inh CA only [3] | %inh CA + DIC/HOBT [4] | inhibition of mUSP18 by individual CA's and coupling reagents (screened with and without DIC/HOBt) |
| --- | --- | --- | --- | --- | --- |
| O=C(O)CCc1ccccc1 [CA072] | -7.29% | -13.3% | – | – | – |
| O=C(O)C(Cl)(Cl)Cl [CA073] | 4.86% | -12.6% | – | – | – |
| O=C(O)CC1C(=O)Nc2ccccc21 (centres unmarked) [CA078] | -7.04% | -14.2% | – | – | – |
| CC(=O)C(=O)O [CA079] | -7.45% | -14.4% | – | – | – |
| COCC(=O)O [CA080] | -8.74% | -15.7% | – | – | – |
| O=C(O)c1ccc2c(c1)OCO2 [CA083] | -4.98% | -14.2% | – | – | – |
| O=C(O)C(Cc1c[nH]cn1)NS(=O)(=O)c1ccc(Cl)cc1 (centres unmarked) [CA091] | 20.4% | 8.3% | – | – | – |
| O=C(O)CCN(Cc1ccccc1)S(=O)(=O)c1c(Cl)cccc1Cl [CA093] | 18.6% | 13.9% | – | – | – |
| O=C(O)c1ncoc1-c1cccs1 [CA094] | 14.4% | 10.3% | – | – | – |
| O=C(O)c1cccc(S(=O)(=O)NCc2cccs2)c1 [CA095] | 14.6% | 10.3% | – | – | – |
| Cc1ccc(-n2c(C)ccc2C)c(C(=O)O)c1 [CA96] | 74.4% | 60% | – | – | could inhibit mUSP18 |
| O=C(O)Cc1csc(COc2ccc(Cl)cc2)n1 [CA097] | 15.8% | 12.5% | – | – | – |
| O=C(O)Cc1cc(-c2ccccc2)on1 [CA098] | 21.6% | 14.7% | – | – | – |
| CN(C(=O)c1cccs1)c1ccccc1C(=O)O [CA100] | 16.4% | 10.5% | – | – | – |
| NS(=O)(=O)c1ccc(-c2cccc(C(F)(F)F)c2)c(C(=O)O)c1 [CA103] | 11.4% | 12.3% | – | – | – |
| O=C(O)c1ccc(OCc2ccncc2)cc1 [CA105] | 12.9% | 11.9% | – | – | – |
| O=C(O)CC(O)(c1nccn1Cc1ccccc1)C(F)(F)F (centres unmarked) [CA113] | 9.19% | 16.2% | – | – | – |
| O=C(O)c1cn(C2CCC2)nn1 [CA114] | 23.9% | 9% | – | – | – |
| Cc1ccc(NS(=O)(=O)c2cccc(C(=O)O)c2)cc1 [CA115] | 21.2% | 6.11% | – | – | – |
| O=C(O)[1C@@H]1C[1C@H]1c1ccco1 [CA116] | 14.9% | 4.8% | – | – | – |
| O=C(O)C1CC(OCc2ccccc2)C1 (centres unmarked) [CA119] | 13.6% | 8.14% | – | – | – |
| O=C(O)[1C@@H]1CCO[1C@H]1c1ccccc1 [CA123] | 12.2% | 8.31% | – | – | – |
| O=C(O)c1snnc1-c1ccc(Br)cc1 [CA126] | 9.01% | 10.8% | – | – | – |

Results, then the molecule that gave them:

| inhibition at 1.25 µM [1] | inhibition at 1.25 µM [2] | %inh CA only [3] | %inh CA + DIC/HOBT [4] | inhibition of mUSP18 by individual CA's and coupling reagents (screened with and without DIC/HOBt) | Structure (SMILES) |
| --- | --- | --- | --- | --- | --- |
| – | – | 0.50% | -12.12% | – | CN1C(=O)C[C@@H](C(=O)O)[C@@H]1c1cccnc1 [CA042] |
| -6.62% | -13.2% | – | – | – | CC(C)(C)OC(=O)NC1(C(=O)O)CC1 [CA060] |
| -1.15% | -11.3% | – | – | – | O=C(O)c1ccc(N2CCCC2)cc1F [CA064] |
| -1.88% | -17.1% | – | – | – | O=C(O)CN1CCOCC1 [CA074] |
| -4.58% | -15.1% | – | – | – | O=C1CC(C(=O)O)NC(=O)N1 (centres unmarked) [CA075] |
| -7.27% | -15.7% | – | – | – | CN1CCN(CC(=O)O)CC1 [CA076] |
| -6.84% | -14.4% | – | – | – | O=C(O)C1CC1 [CA077] |
| – | – | -6.50% | -13.28% | – | O=C(O)c1cnccn1 [CA081] |
| -10.3% | -14.8% | – | – | – | Cc1ncc(C(=O)O)s1 [CA082] |
| -10.2% | -14.9% | – | – | – | O=C(O)c1ccc2c(c1)ncn2C1CCCCO1 (centres unmarked) [CA084] |
| 5.37% | -9.79% | – | – | – | CN1CCN(c2ccc(C(=O)O)cc2)CC1 [CA085] |
| 2% | 15.8% | – | – | – | O=C(O)c1ccc(N2CCOCC2)cc1 [CA086] |
| -3.93% | -14.3% | – | – | – | CN1CCC(C(=O)O)CC1 [CA087] |
| -2.57% | -12.6% | – | – | – | CC(=O)N1CCC(C(=O)O)CC1 [CA088] |
| -4.93% | -12.3% | – | – | – | O=C(O)C1CCN(c2ncccn2)CC1 [CA089] |
| 23.1% | 14.2% | – | – | – | O=C(O)c1nc(N2CCCC2)ncc1Cl [CA090] |
| 15.3% | 13.1% | – | – | – | O=C(O)Cc1csc(-c2cnccn2)n1 [CA092] |
| 21.7% | 15.6% | – | – | – | O=C(O)Cc1ccc(S(=O)(=O)N2CCCC2)s1 [CA099] |

| inhibition at 1.25 µM [1] | inhibition at 1.25 µM [2] | %inh CA only [3] | %inh CA + DIC/HOBT [4] | inhibition of mUSP18 by individual CA's and coupling reagents (screened with and without DIC/HOBt) | Structure (SMILES) |
| --- | --- | --- | --- | --- | --- |
| 13.5% | 12.2% | – | – | – | CN1CCN(c2ccccc2C(=O)O)CC1 [CA101] |
| 12.6% | 14.3% | – | – | – | Cn1cc(-c2ocnc2C(=O)O)cn1 [CA102] |
| 12.4% | 34% | – | – | – | O=C(O)c1cnoc1-c1cccs1 [CA104] |
| 13.6% | 10.8% | – | – | – | O=C(O)c1cc(-n2ccnc2)ccn1 [CA106] |
| 13% | 10.7% | – | – | – | O=C(O)C1CCN(Cc2ccc(Cl)s2)CC1 [CA107] |
| 13.8% | 11.5% | – | – | – | O=C(O)C1CC(=O)N(c2cnccn2)C1 (centres unmarked) [CA108] |
| 10.4% | 12.2% | – | – | – | CCC(C(=O)O)n1nnc(-c2ccsc2)n1 (centres unmarked) [CA109] |
| 12.9% | 15% | – | – | – | Cc1cnn(-c2c(C(=O)O)c(C)nn2C)c1 [CA110] |
| 12.3% | 14.7% | – | – | – | O=C(O)c1csc(-c2ncccn2)n1 [CA111] |
| 13.7% | 16.4% | – | – | – | O=C(O)c1ncoc1C1CC1 [CA112] |
| 18.6% | 10% | – | – | – | Cn1ncc(C(=O)O)c1-n1cccc1 [CA117] |
| 12.1% | 4.09% | – | – | – | O=C(O)C1(n2cnnn2)CC1 [CA118] |
| 11.7% | 5.68% | – | – | – | O=C(O)C1(n2cnnn2)CCOCC1 [CA120] |
| 10.7% | 7.15% | – | – | – | O=C(O)c1noc(Cc2ccccc2F)n1 [CA121] |
| 11.4% | 5.98% | – | – | – | CCn1cc(S(=O)(=O)N2CCC(C(=O)O)CC2)cn1 [CA122] |
| 10.7% | 3.42% | – | – | – | O=C(O)c1cnnn1-c1ccccc1Cl [CA124] |
| 7.48% | 7.42% | – | – | – | O=C(O)c1cnn(-c2ccncc2)c1 [CA125] |
| 2.84% | 5.46% | – | – | – | Cc1nc(CN2CCCC2C(=O)O)no1 (centres unmarked) [CA127] |
